According to patent US10519159B2, “Antiviral aliphatic ester prodrugs of tenofovir” (Merck Sharp & Dohme Corp., priority 2016, dated 2019):
Read-outs that look alike come from different tables or passages of the source.

How the values were obtained:
[1] = Prodrug stability assay in bio-relevant media (FaSSIF with pancreatin), GI tract stability; format: in vitro ADME
Experimental: Prodrug Stability Assay in Bio-Relevant Media
The following assay was employed to evaluate the stability of the prodrugs in simulated gastrointestinal tract conditions. Preparation of fasted state simulated intestinal fluid (FaSSIF) using Phares SIF Powder was carried out according to protocols from Phare Drug Delivery AG (Baselland, Switzerland). For sample preparation, 10 μL stock solutions (10 mM) of prodrug substance in DMSO was added to 990 μL of 0.5 mg/mL Pancreatin solution (Fisher CAS #8049-47-6) in FaSSIF. Two samples were prepared for each compound. If the sample was a clear solution, it was directly analyzed by HPLC. If the sample was not clear, the sample was […], maintained at 37° C. and observed 5 h later. If the sample was clear, HPLC analysis was directly performed. If the sample was still not clear, the sample was diluted with 100% ACN and assayed by HPLC. All the samples were vortexed for 3 min and observed before injection. For the diluted samples, the area is multiplied by a dilution factor when the data is analyzed. The analysis was carried out with an Agilent 1100 series HPLC with autosampler. The column was a Poroshell 120 EC-C18, 4.6×50 mm, 2.7 μm. The flow rate was 1.8 mL/min, and the injection volume was 5 or 10 μL. UV detection was in the range 210-400 nm. The mobile phase consisted of solvent A (water plus 10 mM tetrabutylammonium bromide) and solvent B (acetonitrile) with a gradient of: 90% solvent A at 0 min, changing to 95% solvent B over 6 min, maintaining for 1.5 min, then reverting to 90% solvent A over 1.6 min. The HPLC peak area of the prodrug at 5 h was divided by the HPLC peak area of the prodrug at 0 h, to generate the % claimed parent ratio, which is summarized in Table 1 for gastrointestinal (GI) Tract stability.

HIV-1 (H9/IIIB strain) = assay: Multiple round HIV-1 infection assay (Viking assay) in MT4-GFP cells; format: cell-based
Experimental: Assessing Antiviral Potency in a Multiple Round HIV-1 Infection Assay (Viking Assay)
The antiviral activity of the tenofovir prodrugs of the Examples herein was assessed in an assay that measures the rate of replication of HIV in cell culture, termed the Viking assay (Viral KINetics in Green cells) and performed as follows. HIV-1 replication was monitored using MT4-gag-GFP clone D3 (hereafter designated MT4-GFP), which are MT-4 cells modified to harbor a GFP reporter gene, the expression of which is dependent on the HIV-1 expressed proteins tat and rev. Productive infection of an MT4-GFP cell with HIV-1 results in GFP expression approximately 24 h post-infection. MT4-GFP cells were maintained at 37° C./5% CO2/90% relative humidity in RPMI 1640 supplemented with 10% fetal bovine serum, 100 U/ml penicillin/streptomycin, and 400 μg/ml G418 to maintain the reporter gene. For infections, MT4-GFP cells were placed in the same medium lacking G418 and infected overnight with HIV-1 (H9/IIIB strain) virus at an approximate multiplicity of infection of 0.01 in the same incubation conditions. Cells were then washed and re-suspended in either RPMI 1640 supplemented with 10% or 50% normal human serum (NHS) at 1.6×10^5 cells/mL (10% NHS or 50% NHS, respectively). Compound plates were prepared by dispensing compounds dissolved in DMSO into wells of 384 well poly-D-lysine-coated plates (0.2 μl/well) using an ECHO acoustic dispenser. Each compound was tested in a 10-point serial 3-fold dilution (typical final concentrations: 8.4 μM-0.42 nM). Controls included no inhibitor (DMSO only) and a combination of three antiviral agents (efavirenz, indinavir, an in-house integrase strand transfer inhibitor at final concentrations of 4 μM each). Cells were added (50 μL/well) to compound plates and the infected cells were maintained at 37° C./5% CO2/90% relative humidity.
Infected cells were quantified at two time points, ˜48 h and ˜72 h post-infection, by counting the number of green cells in each well using an Acumen eX3 scanner. The increase in the number of green cells over ˜24 h period gives the reproductive ratio, R0, which is typically 5-15 and has been shown experimentally to be in logarithmic phase (data not shown). Inhibition of R0 is calculated for each well, and IC50s determined by non-linear 4-parameter curve fitting.

[2] = Table 1, % parent: HPLC peak area of prodrug at 5 h / 0 h, 0.5 mg/mL pancreatin in FaSSIF, 37° C.
[3] = Table 1, MT4-GFP cells infected with HIV-1 H9/IIIB, 10% normal human serum, read-out: Viking, IC50 (10% NHS)
[4] = Table 1, MT4-GFP cells infected with HIV-1 H9/IIIB, 50% normal human serum, read-out: Viking, IC50 (50% NHS)
[5] = Table 2, L-Ala comparison compounds, % parent at 5 h vs 0 h, pancreatin in FaSSIF
[6] = Human immunodeficiency virus 1, IIIB, Table 2, L-Ala comparison compounds, MT4-GFP cells, HIV-1 H9/IIIB, 10% normal human serum, read-out: Viking, IC50 (10% NHS)
[7] = Human immunodeficiency virus 1, IIIB, Table 2, L-Ala comparison compounds, MT4-GFP cells, HIV-1 H9/IIIB, 50% normal human serum, read-out: Viking, IC50 (50% NHS)

SMILES | GI Tract stability [1, 2] | IC50 (HIV-1 (H9/IIIB strain); [3]) | IC50 (HIV-1 (H9/IIIB strain); [4]) | GI Tract stability [1, 5] | IC50 (HIV-1 (H9/IIIB strain); [6]) | IC50 (HIV-1 (H9/IIIB strain); [7]) | IC50 (HIV-1 (H9/IIIB strain); Human immunodeficiency virus 1, IIIB, Table 1, MT4-GFP cells infected with HIV-1 H9/IIIB, 10% normal human serum, read-out: Viking, IC50 (10% NHS)) | IC50 (HIV-1 (H9/IIIB strain); Human immunodeficiency virus 1, IIIB, Table 1, MT4-GFP cells infected with HIV-1 H9/IIIB, 50% normal human serum, read-out: Viking, IC50 (50% NHS))
CCCSC(=O)C(C)(C)NP(=O)(CO[C@H](C)Cn1cnc2c(N)ncnc21)OCCC(=O)OC(C)C (single isomer, unassigned) [Example 13A] | 76.99% | 0.00508 µM | 0.0219 µM |  |  |  |  | 
CCCOC(=O)[C@H](C)NP(=O)(CO[C@H](C)Cn1cnc2c(N)ncnc21)OCCC(=O)OC(C)C (single isomer, unassigned) [Compound 15A, reference compound] |  |  |  | 60.1% | 0.101 µM | 1.22 µM |  | 
CCCOC(=O)C(C)(C)NP(=O)(CO[C@H](C)Cn1cnc2c(N)ncnc21)OCCc1cccc(C(=O)OC(C)C)c1 (single isomer, unassigned) [Example 11A] | 88.58% | 0.00218 µM | 0.00639 µM |  |  |  |  | 
CC(C)OC(=O)CCOP(=O)(CO[C@H](C)Cn1cnc2c(N)ncnc21)NC(C)(C)C(=O)OC(C)C (single isomer, unassigned) [Example 2A] | 100.30% | 0.0225 µM | 0.0698 µM |  |  |  |  | 
CCCOC(=O)C(C)(C)N[P@](=O)(CO[C@H](C)Cn1cnc2c(N)ncnc21)OCc1ccc(F)cc1C(=O)OC(C)C (single isomer, unassigned) [Example 7B] | 95.0% |  |  |  |  |  | 0.00108 µM | 0.00555 µM
CCCOC(=O)C(C)(C)NP(=O)(CO[C@H](C)Cn1cnc2c(N)ncnc21)OCCC(=O)OC(C)C (single isomer, unassigned) [Example 1B] | 99.35% | 0.00509 µM | 0.0138 µM |  |  |  |  | 
CCCOC(=O)[C@H](C)NP(=O)(CO[C@H](C)Cn1cnc2c(N)ncnc21)OCc1ccc(F)cc1C(=O)OC(C)C (single isomer, unassigned) [Compound 17A, reference compound] |  |  |  | 20.3% | 0.035 µM | 2.23 µM |  | 
